According to patent publication US20240041877A1, “DOSAGE REGIME AND METHOD FOR TREATING PULMONARY ARTERIAL HYPERTENSION” (Altavant Sciences GmbH, priority 2019, published 2024):

Assay: Part 2 (MAD): plasma pharmacokinetics after BID oral KAR5585 for 14 days (incl. accumulation ratios and dose proportionality)
[1] = 100 mg (Cohort 2) to 400 mg (Cohort 4), 4-fold increase in dose, fed
[2] = 100 mg KAR5585 BID, fasted, Cohort 1
[3] = 100 mg KAR5585 BID, fasted, Part 2 Cohort 1, mean
[4] = 100 mg KAR5585 BID, fed, Cohort 2
[5] = 100 mg KAR5585 BID, fed, Part 2 Cohort 2, mean
[6] = KAR5585 100 mg BID fasted, Cohort 1, Day 1 AM, geo. mean
[7] = KAR5585 100 mg BID fasted, Cohort 1, Day 1 AM, mean
[8] = KAR5585 100 mg BID fasted, Cohort 1, Day 14/Day 1 accumulation ratio, geo. mean
[9] = KAR5585 100 mg BID fasted, Cohort 1, Day 14/Day 1 accumulation ratio, mean
[10] = KAR5585 100 mg BID fasted, Cohort 1, Day 14, geo. mean
[11] = KAR5585 100 mg BID fasted, Cohort 1, Day 14, mean
[12] = KAR5585 100 mg BID fed, Cohort 2, Day 1 AM, geo. mean
[13] = KAR5585 100 mg BID fed, Cohort 2, Day 1 AM, mean
[14] = KAR5585 100 mg BID fed, Cohort 2, Day 1 PM, geo. mean
[15] = KAR5585 100 mg BID fed, Cohort 2, Day 1 PM, mean
[16] = KAR5585 100 mg BID fed, Cohort 2, Day 7 AM, Day 7/Day 1 accumulation ratio, geo. mean
[17] = KAR5585 100 mg BID fed, Cohort 2, Day 7 AM, Day 7/Day 1 accumulation ratio, mean
[18] = KAR5585 100 mg BID fed, Cohort 2, Day 7 AM, geo. mean
[19] = KAR5585 100 mg BID fed, Cohort 2, Day 7 AM, mean
[20] = KAR5585 100 mg BID fed, Cohort 2, Day 7 PM, Day 7/Day 1 accumulation ratio, geo. mean
[21] = KAR5585 100 mg BID fed, Cohort 2, Day 7 PM, Day 7/Day 1 accumulation ratio, mean
[22] = KAR5585 100 mg BID fed, Cohort 2, Day 7 PM, geo. mean
[23] = KAR5585 100 mg BID fed, Cohort 2, Day 7 PM, mean
[24] = KAR5585 100 mg BID fed, Cohort 2, Day 14 AM, Day 14/Day 1 accumulation ratio, geo. mean
[25] = KAR5585 100 mg BID fed, Cohort 2, Day 14 AM, Day 14/Day 1 accumulation ratio, mean
[26] = KAR5585 100 mg BID fed, Cohort 2, Day 14 AM, geo. mean
[27] = KAR5585 100 mg BID fed, Cohort 2, Day 14 AM, mean
[28] = KAR5585 200 mg BID fed, Cohort 3, Day 1 AM, geo. mean
[29] = KAR5585 200 mg BID fed, Cohort 3, Day 1 AM, mean
[30] = KAR5585 200 mg BID fed, Cohort 3, Day 1 PM, geo. mean

Source text: Food effect was to be evaluated in Part 1, Period 2.
Pharmacokinetic data were to be summarized descriptively.

Nc1nc(O[C@H](c2ccc(Cl)cc2-c2ccccc2)C(F)(F)F)cc(N2CCC3(CC2)CN[C@H](C(=O)O)C3)n1 [KAR5417, (S)-8-(2-amino-6-((R)-1-(5-chloro-[1,1T-biphenyl]-2-yl)-2,2,2-trifluoroeth-oxy)pyrimidin-4-yl)-2,8-diazaspiro[4.5]decane-3-carboxylic acid]
fold increase in mean AUC0-12, Day 1 [1]: 7.0 fold
fold increase in mean AUC0-12, Day 14 [1]: 4.6 fold
fold increase in mean AUC0-24, Day 1 [1]: 6.45 fold
fold increase in mean AUC0-24, Day 14 [1]: 4.45 fold
fold increase in mean Cmax, Day 1 [1]: 6.9 fold
fold increase in mean Cmax, Day 14 [1]: ~4.5 fold
RAUC0-12 (accumulation ratio for AUC0-12), range Day 7/Day 1 and Day 14/Day 1 (100 mg KAR5585 BID): 2.19-2.57
half-life, Day 14 (100 mg KAR5585 BID, fasted): 18.8 h
peak mean concentration of KAR5417 relative to KAR5585, Day 1 [2]: approximately 7.25 fold
peak mean concentration of KAR5417 relative to KAR5585, Day 14 [2]: ~9.1 fold
time peak plasma concentrations were reached, Day 1 [2]: 2.0 to 6.0 h
AUC0-12, Day 1 [3]: 0.741 µg·h/mL
AUC0-24, Day 14 [3]: 1.65 µg·h/mL
mean apparent elimination half-life, Day 14 (100 mg KAR5585 BID, fed): 19.6 h
Cmax (peak mean concentration), Day 1 [4]: 0.0859 µg/mL
Cmax (peak mean concentration), Day 14 [4]: 0.168 µg/mL
mean Cmax plasma concentrations, range on all dosing days [4]: 0.0859 to 0.168 µg/mL
AUC0-12, Day 1 [5]: 0.47 µg·h/mL
AUC0-24, Day 14 [5]: 1.22 µg·h/mL
RAUC0-12 (accumulation ratio for AUC0-12), range Day 7/Day 1 and Day 14/Day 1 (200 mg KAR5585 BID): 1.09-1.34
mean apparent elimination half-life, Day 14 (200 mg KAR5585 BID, fed): 25.0 h
RAUC0-12 (accumulation ratio for AUC0-12), range Day 7/Day 1 and Day 14/Day 1 (400 mg KAR5585 BID): 1.65-2.38
mean apparent elimination half-life, Day 14 (400 mg KAR5585 BID, fed): 30.6 h
steady-state plasma levels achieved by (BID oral KAR5585 for 14 days): ≤ 7 days
AUC0-12 [6]: 0.643 µg·h/mL
AUC0-∞ [6]: 0.769 µg·h/mL
C12 [6]: 19.5 ng/mL
Cmax [6]: 0.101 µg/mL
Cmax/D [6]: 1.01 (ng/ml)/mg
t1/2 [6]: 3.37 h
AUC0-12 [7]: 0.741 µg·h/mL
AUC0-∞ [7]: 0.876 µg·h/mL
C12 [7]: 21.3 ng/mL
Cmax/D [7]: 1.21 (ng/ml)/mg
t1/2 [7]: 3.43 h
RAUC0-12 [8]: 1.64
RCmax [8]: 1.75
RAUC0-12 [9]: 1.83
RCmax [9]: 2.56
AUC0-12 [10]: 1.15 µg·h/mL
AUC0-24 [10]: 1.49 µg·h/mL
AUC0-24/D [10]: 14.9 (hr*ng/ml)/mg
AUC0-∞ [10]: 1.96 µg·h/mL
C12 [10]: 42.0 ng/mL
C24 [10]: 18.1 ng/mL
Cmax [10]: 0.177 µg/mL
Cmax/D [10]: 1.77 (ng/ml)/mg
t1/2 [10]: 17.6 h
AUC0-12 [11]: 1.28 µg·h/mL
AUC0-24 [11]: 1.65 µg·h/mL
AUC0-24/D [11]: 16.5 (hr*ng/ml)/mg
AUC0-∞ [11]: 2.22 µg·h/mL
C12 [11]: 46.3 ng/mL
Cmax/D [11]: 1.94 (ng/ml)/mg
t1/2 [11]: 18.8 h
AUC0-12 [12]: 0.428 µg·h/mL
AUC0-∞ [12]: 0.516 µg·h/mL
C12 [12]: 15.4 ng/mL
Cmax [12]: 0.0792 µg/mL
Cmax/D [12]: 0.792 (ng/ml)/mg
t1/2 [12]: 4.16 h
AUC0-12 [13]: 0.47 µg·h/mL
AUC0-∞ [13]: 0.564 µg·h/mL
C12 [13]: 17.2 ng/mL
Cmax [13]: 0.0859 µg/mL
Cmax/D [13]: 0.859 (ng/ml)/mg
t1/2 [13]: 4.18 h
AUC0-12 [14]: 0.714 µg·h/mL
AUC0-24/D [14]: 5.78 (hr*ng/ml)/mg
AUC0-∞ [14]: 1.09 µg·h/mL
C12 [14]: 39.5 ng/mL
Cmax [14]: 0.119 µg/mL
Cmax/D [14]: 1.19 (ng/ml)/mg
t1/2 [14]: 6.95 h
AUC0-12 [15]: 0.748 µg·h/mL
AUC0-24 [15]: 1.22 µg·h/mL
AUC0-24/D [15]: 6.09 (hr*ng/ml)/mg
AUC0-∞ [15]: 1.14 µg·h/mL
C12 [15]: 43.1 ng/mL
Cmax [15]: 0.13 µg/mL
Cmax/D [15]: 1.3 (ng/ml)/mg
t1/2 [15]: 7.00 h
RAUC0-12 [16]: 2.45
RCmax [16]: 2.02
RAUC0-12 [17]: 2.57
RCmax [17]: 2.07
AUC0-12 [18]: 1.05 µg·h/mL
AUC0-∞ [18]: 1.38 µg·h/mL
C12 [18]: 44.3 ng/mL
Cmax/D [18]: 1.60 (ng/ml)/mg
t1/2 [18]: 5.24 h
AUC0-12 [19]: 1.08 µg·h/mL
AUC0-∞ [19]: 1.41 µg·h/mL
C12 [19]: 45.1 ng/mL
Cmax [19]: 0.168 µg/mL
Cmax/D [19]: 1.68 (ng/ml)/mg
t1/2 [19]: 5.31 h
RAUC0-12 [20]: 2.04
RCmax [20]: 1.34
RAUC0-12 [21]: 2.19
RCmax [21]: 1.43
AUC0-12 [22]: 0.875 µg·h/mL
AUC0-24 [22]: 1.93 µg·h/mL
AUC0-24/D [22]: 9.64 (hr*ng/ml)/mg
AUC0-∞ [22]: 1.7 µg·h/mL
C12 [22]: 61.4 ng/mL
Cmax [22]: 0.106 µg/mL
Cmax/D [22]: 1.06 (ng/ml)/mg
t1/2 [22]: 7.91 h
AUC0-12 [23]: 0.902 µg·h/mL
AUC0-24 [23]: 1.99 µg·h/mL
AUC0-24/D [23]: 9.93 (hr*ng/ml)/mg
AUC0-∞ [23]: 1.73 µg·h/mL
C12 [23]: 62.3 ng/mL
Cmax/D [23]: 1.12 (ng/ml)/mg
t1/2 [23]: 8.10 h
RAUC0-12 [24]: 2.09
RCmax [24]: 1.90
RAUC0-12 [25]: 2.23
RCmax [25]: 1.98
AUC0-12 [26]: 0.9 µg·h/mL
AUC0-24 [26]: 1.22 µg·h/mL
AUC0-∞ [26]: 1.78 µg·h/mL
C12 [26]: 35.4 ng/mL
C24 [26]: 19.3 ng/mL
Cmax [26]: 0.155 µg/mL
Cmax/D [26]: 1.55 (ng/ml)/mg
t1/2 [26]: 19.0 h
AUC0-12 [27]: 0.943 µg·h/mL
AUC0-24 [27]: 1.27 µg·h/mL
AUC0-∞ [27]: 1.83 µg·h/mL
C12 [27]: 36.4 ng/mL
C24 [27]: 19.6 ng/mL
Cmax [27]: 0.168 µg/mL
Cmax/D [27]: 1.68 (ng/ml)/mg
t1/2 [27]: 19.6 h
AUC0-12 [28]: 1.62 µg·h/mL
AUC0-∞ [28]: 1.98 µg·h/mL
C12 [28]: 56.6 ng/mL
Cmax [28]: 0.336 µg/mL
Cmax/D [28]: 1.68 (ng/ml)/mg
t1/2 [28]: 4.41 h
AUC0-12 [29]: 1.7 µg·h/mL
C12 [29]: 60.7 ng/mL
Cmax [29]: 0.357 µg/mL
Cmax/D [29]: 1.79 (ng/ml)/mg
t1/2 [29]: 4.49 h
AUC0-12 [30]: 1.91 µg·h/mL
AUC0-24 [30]: 3.54 µg·h/mL
AUC0-24/D [30]: 8.85 (hr*ng/ml)/mg
AUC0-∞ [30]: 2.64 µg·h/mL
C12 [30]: 102 ng/mL
Cmax [30]: 0.307 µg/mL
Cmax/D [30]: 1.54 (ng/ml)/mg
